The values below come from patent publication US20110212100A1, “METHODS FOR MODULATING DEVELOPMENT AND EXPANSION OF IL-17 EXPRESSING CELLS” (priority 2007, published 2011).

For test [1], the system named is B220+ B cells and CD8+ T cells. As to the kind of experiment: B cell and CD8+ T cell proliferation and function. Format: cell-based, mouse. On the procedure: The non-specific effects of HF on B and CD8+ T cells were evaluated. B220+ B cells or CD8+ T cells were isolated from the spleen and peripheral lymph nodes of C57B/6 mice. B cell proliferation and IL-6 production was induced by culturing the cells with LPS (0.5 μg/ml) for 4 days. The effects of HF on B cell function was determined by adding titrating amounts of HF (1.25 nM-40 nM) at the time of LPS stimulation. B cell proliferation was monitored by labeling cells with Carboxyfluorescein diacetate, succinimidyl ester (CFSE; 5 μM) prior to LPS stimulation and determining the rate of CFSE dilution after 4 days by flow cytometric analyses. LPS-induced IL-6 production by B cells was determined by intracellular staining on day 4, following PMA+Ionomycin+Brefeldin A re-stimulation as described above. For CD8+ T cell experiments, purified CD8+ T cells were labeled with CFSE as above and the T cells were activated using anti-CD3 (1 μg/ml) and anti-CD28 (1 μg/ml) antibodies. […] CD8+ T cell proliferation was determined by monitoring CFSE dilution on day 3-post activation; CD25 expression was determined by FACS staining on day 2 of culture; differentiation of CD8+ T cells into cytolytic T cells (CTL) was evaluated on day 4 by determining expression of IFNγ and granzyme B following PMA+Ionomycin+Brefeldin A re-stimulation. […]

Test [2] relates to T-cells and fibroblasts. As to the kind of experiment: Effects on pro-inflammatory and pro-fibrotic gene expression in T-cells and fibroblasts in vitro. Format: cell-based. On the procedure:
At concentrations over 80 nM, HF has a variety of non-specific effects on both T-cells and fibroblasts. […] At the recommended tolerated dose for chronic treatment (0.5 mg/day), plasma levels of HF were ˜0.5 ng/ml (1 nM). (de.Jonge et al., Eur J Cancer, vol. 42(12):1768-74 (2006)).
In T-cells and fibroblasts in vitro, HF has highly specific effects on pro-inflammatory and pro-fibrotic gene expression in a dose range of ˜2-40 nM. At doses>80 nM, non-specific effects on protein synthesis and cell proliferation are seen. The compositions are formulated to deliver a dosage of HF that will have specific effects on pro-inflammatory cytokine expression or ECM architecture in the 2-40 nM range, but keep the dosage below levels that can cause non-specific effects.

Test [3] relates to human memory T cells (CD4+ CD45RO+). As to the kind of experiment: IL-17 and IFNγ expression by human memory T cells co-cultured with monocytes. Format: cell-based. To be noted: 100 nM HF, 6 days. On the procedure:
FIG. 10F is an illustration depicting purified primary human memory T cells (CD4^+ CD45RO^+) activated by anti-CD3/anti-CD28 coated beads in co-culture with CD14^+ monocytes and treated with DMSO, 100 nM HF or 100 nM MAZ1310. T cells were expanded for 6 days and intracellular cytokine expression was determined following restimuation with PMA plus ionomycin in the presence of brefeldin A.
Human T cell isolation and activation: Resting CD4^+ T cells were isolated from PBMC of healthy human donors using Dynal CD4 Positive Isolation Kit (Invitrogen, Carlsbad, Calif.) as previously described (M. Sundrud et al., Blood 106, 3440, 2005). CD4^+ cells were further purified to obtain memory T cells by staining with PE-conjugated anti-human CD45RO-PE antibodies (BD Biosciences), and sorting on a FACSAria cytometer (BD Biosciences). Following purification, cells were greater than 99% CD4^+ CD45RO^+. […] T cells were expanded in the presence HF or MAZ1310 as indicated for 6 days and intracellular cytokine expression was determined by intracellular staining.
Detection of cytokine production: Cytokines secreted into media supernatant were measured using the mouse Th1/Th2 cytometric bead array (CBA, BD Pharmingen) in accordance with manufacturers instructions. […]

The subject of test [4] is fibrosis. To be noted: Pines et al.; cited from earlier work.
For test [5], the system named is anti-CD3 activated human peripheral blood T cells. The conditions noted are these: cited from earlier work.

As to `O=C(CC1NCCCC1O)Cn1cnc2cc(Br)c(Cl)cc2c1=O` (racemic) [HF, 7-bromo-6-chloro-3-[3-(3-hydroxy-2-piperidinyl)-2-oxopropyl]-4(3H)-quinazolinone], the “dose at which B and CD8+ T cells were profoundly impaired in proliferation and function” value in test [1] is given as “greater than 20 nM”. In addition, in test [1] (doses lower than 10 nM), the “effect on B and CD8+ T cell function or proliferation, in words” value was “little or no effect”. Moreover, in test [2], the “dose range of highly specific effects on pro-inflammatory and pro-fibrotic gene expression” value was in the range of 2 to 40 nM. Also, in test [3], the “IFNγ expression by human T cells, in words” value is given as “essentially unaffected”; the “percentage of human T cells expressing IL-17 and amount of IL-17 produced, in words” value was “greatly reduced”. Also, in test [4], the “concentration range for inhibition of fibrosis in vitro” value is 1 to 200 nM. The “NFkB activation and T-cell secretion of cytokines, in words” value in test [5] (80 nM HF, crude preparation of primary T-cells (Leiba et al.)) is “broadly suppress NFkB activation and T-cell secretion of cytokines”. The IC50 in test [5] (Lieba et al., read-out: concentration for 50% inhibition of cytokine secretion, NF-kB activation and p38 phosphorylation) was 20 to 40 nM.
